{
  "source": "patent US8022239B2",
  "about": "“Mechanism-based inactivators of autotaxin” (The University of Memphis Research Foundation, priority 2008, dated 2011)",
  "molecular_target": "T1, autotaxin (ATX) (Homo sapiens, UniProt Q13822)",
  "T1 construct": "concentrated conditioned serum-free medium (CCM) from MDA MB-435 cells as the source of ATX; endogenous in cells; host or cells: MDA-MB-435 cells (serum-free conditioned medium, concentrated ~10 fold)",
  "experiment": "Autotaxin inactivation analysis: ATX-mediated hydrolysis of FS-3 (fluorescence), concentrated conditioned medium from MDA MB-435 cells as ATX source",
  "assay_type": "biochemical",
  "conditions": "FS-3 substrate",
  "method": "The test protocol was as follows:\nMDA-MB-435 cells were cultured at 37° C. and 5% CO2 in Dulbecco's Modified Eagle Medium (DMEM) (MediaTech, Herndon, Va.) containing 5% fetal bovine serum (Hyclone, Logan, Utah), 100 U/ml penicillin, 100 μg/ml streptomycin (Hyclone, Logan, Utah) and 292 μg/ml L-glutamine (Hyclone, Logan, Utah). Cells were grown to ˜80% confluence at which time the cells were washed twice with sterile phosphate buffered saline prior to the addition of serum free DMEM containing L-glutamine. Conditioned medium was collected after 24-30 hours, supplemented with 20% ethylene glycol and was clarified by centrifugation at 3000×g and 4° C. for 10 min. The media was concentrated ˜10 fold and buffer exchanged into Tris (50 mM, pH 7.4) containing 20% ethylene glycol using an Amicon 8050 cell fitted with a PM30 filter (MILLIPORE®, Billerica, Mass.). Aliquots of concentrated conditioned media were stored at 4° C. until needed.\nATX inhibition was assayed using FS-3 (Echelon Biosciences, Inc., Salt Lake City, Utah, USA) as a substrate and ˜10 times concentrated conditioned serum-free medium (CCM) from MDA MB-435 cells as the source of ATX. Assays were performed in 96-well plates with CCM comprising one-third of the total volume and final FS-3 and charcoal-stripped fatty acid free BSA concentrations of 1 and 30 μM in assay buffer (1 mM each CaCl2 and MgCl2, 5 mM KCl, 140 mM NaCl, 50 mM Tris pH 8.0). Fluorescence was read at 5 minute intervals by a Synergy2 system (BioTek, Winooski, Vt.) with excitation and emission wavelengths of 485 and 538 nm, respectively. […] Fluorescence readings were normalized to vehicle control after subtraction of fluorescence in the absence of CCM. Data are shown as the mean±S.D. of at least three wells.",
  "key": {"[1]": {"conditions": "3 uM, time 0 hour, low % response = effective inhibition"}},
  "data": [
    {"smiles": "CCCCCCCCCCCCCCCCCCOP(=O)(O)Oc1ccc(C(F)F)cc1", "note": "[Example 1, (18:0)-p-difluorophosphodiester]", "values": [
      {"measurement": "Fluorescence (% Response)", "setting": "30 uM, time 0 hour", "result": 96.1, "unit": "%"},
      {"measurement": "Fluorescence (% Response)", "setting": "100 uM, time 0 hour", "result": 94.1, "unit": "%"}
    ]},
    {"smiles": "CCCCCCCCCCCCCCCCCCOP(=O)(O)Oc1ccc(CF)cc1", "note": "[Example 2, (18:0)-p-monofluorophosphodiester]", "values": [
      {"measurement": "Fluorescence (% Response)", "setting": "[1]", "result": 83.3, "unit": "%"},
      {"measurement": "Fluorescence (% Response)", "setting": "3 uM, time 1 hour", "result": 47.9, "unit": "%"},
      {"measurement": "Fluorescence (% Response)", "setting": "3 uM, time 3 hours", "result": 28.1, "unit": "%"},
      {"measurement": "Fluorescence (% Response)", "setting": "3 uM, time 6 hours", "result": 25.0, "unit": "%"},
      {"measurement": "Fluorescence (% Response)", "setting": "30 uM, time 0 hour", "result": 57.3, "unit": "%"},
      {"measurement": "Fluorescence (% Response)", "setting": "30 uM, time 1 hour", "result": 35.4, "unit": "%"},
      {"measurement": "Fluorescence (% Response)", "setting": "30 uM, time 3 hours", "result": 9.4, "unit": "%"},
      {"measurement": "Fluorescence (% Response)", "setting": "30 uM, time 6 hours", "result": "−2.1", "unit": "%"}
    ]},
    {"smiles": "CCCCCCCCCCCCCCCCOP(=O)(O)Oc1ccc(C(F)F)cc1", "note": "[Example 3, (16:0)-p-difluorophosphodiester]", "values": [
      {"measurement": "Fluorescence (% Response)", "setting": "[1]", "result": 94.8, "unit": "%"},
      {"measurement": "Fluorescence (% Response)", "setting": "3 uM, time 1 hour", "result": 60.4, "unit": "%"},
      {"measurement": "Fluorescence (% Response)", "setting": "3 uM, time 3 hours", "result": 44.8, "unit": "%"},
      {"measurement": "Fluorescence (% Response)", "setting": "3 uM, time 6 hours", "result": 34.4, "unit": "%"},
      {"measurement": "Fluorescence (% Response)", "setting": "30 uM, time 0 hour", "result": 71.9, "unit": "%"},
      {"measurement": "Fluorescence (% Response)", "setting": "30 uM, time 1 hour", "result": 37.5, "unit": "%"},
      {"measurement": "Fluorescence (% Response)", "setting": "30 uM, time 3 hours", "result": 19.0, "unit": "%"}
    ]},
    {"smiles": "CCCCCCCCCCCCCCCCOP(=O)(O)Oc1ccc(CF)cc1", "note": "[Example 4, (16:0)-p-monofluorophosphodiester]", "values": [
      {"measurement": "Fluorescence (% Response)", "setting": "[1]", "result": 81.3, "unit": "%"},
      {"measurement": "Fluorescence (% Response)", "setting": "3 uM, time 1 hour", "result": 50.0, "unit": "%"},
      {"measurement": "Fluorescence (% Response)", "setting": "3 uM, time 3 hours", "result": 33.3, "unit": "%"},
      {"measurement": "Fluorescence (% Response)", "setting": "3 uM, time 6 hours", "result": 21.9, "unit": "%"},
      {"measurement": "Fluorescence (% Response)", "setting": "30 uM, time 0 hour", "result": 26.0, "unit": "%"},
      {"measurement": "Fluorescence (% Response)", "setting": "30 uM, time 1 hour", "result": 12.5, "unit": "%"},
      {"measurement": "Fluorescence (% Response)", "setting": "30 uM, time 3 hours", "result": 5.2, "unit": "%"},
      {"measurement": "Fluorescence (% Response)", "setting": "30 uM, time 6 hours", "result": "−2.1", "unit": "%"}
    ]},
    {"smiles": "CCCCCCCCCCCCCCOP(=O)(O)Oc1ccc(C(F)F)cc1", "note": "[Example 5, (14:0)-p-difluorophosphodiester]", "values": [
      {"measurement": "Fluorescence (% Response)", "setting": "[1]", "result": 92.5, "unit": "%"},
      {"measurement": "Fluorescence (% Response)", "setting": "3 uM, time 1 hour", "result": 57.1, "unit": "%"},
      {"measurement": "Fluorescence (% Response)", "setting": "3 uM, time 3 hours", "result": 42.7, "unit": "%"},
      {"measurement": "Fluorescence (% Response)", "setting": "3 uM, time 6 hours", "result": 31.2, "unit": "%"},
      {"measurement": "Fluorescence (% Response)", "setting": "30 uM, time 0 hour", "result": 24.5, "unit": "%"},
      {"measurement": "Fluorescence (% Response)", "setting": "30 uM, time 1 hour", "result": 14.3, "unit": "%"},
      {"measurement": "Fluorescence (% Response)", "setting": "30 uM, time 3 hours", "result": 12.9, "unit": "%"},
      {"measurement": "Fluorescence (% Response)", "setting": "30 uM, time 6 hours", "result": 9.6, "unit": "%"}
    ]},
    {"smiles": "CCCCCCCCCCCCCCOP(=O)(O)Oc1ccc(CF)cc1", "note": "[Example 6, (14:0)-p-monofluorophosphodiester]", "values": [
      {"measurement": "Fluorescence (% Response)", "setting": "[1]", "result": 95.9, "unit": "%"},
      {"measurement": "Fluorescence (% Response)", "setting": "3 uM, time 1 hour", "result": 61.9, "unit": "%"},
      {"measurement": "Fluorescence (% Response)", "setting": "3 uM, time 3 hours", "result": 45.7, "unit": "%"},
      {"measurement": "Fluorescence (% Response)", "setting": "3 uM, time 6 hours", "result": 32.7, "unit": "%"},
      {"measurement": "Fluorescence (% Response)", "setting": "30 uM, time 0 hour", "result": 48.9, "unit": "%"},
      {"measurement": "Fluorescence (% Response)", "setting": "30 uM, time 1 hour", "result": 31.3, "unit": "%"},
      {"measurement": "Fluorescence (% Response)", "setting": "30 uM, time 3 hours", "result": 25.0, "unit": "%"},
      {"measurement": "Fluorescence (% Response)", "setting": "30 uM, time 6 hours", "result": 18.5, "unit": "%"}
    ]},
    {"smiles": "CCCCCCCCCCCCOP(=O)(O)Oc1ccc(C(F)F)cc1", "note": "[Example 7, (12:0)-p-difluorophosphodiester]", "values": [
      {"measurement": "Fluorescence (% Response)", "setting": "[1]", "result": 93.9, "unit": "%"},
      {"measurement": "Fluorescence (% Response)", "setting": "3 uM, time 1 hour", "result": 64.5, "unit": "%"},
      {"measurement": "Fluorescence (% Response)", "setting": "3 uM, time 3 hours", "result": 48.3, "unit": "%"},
      {"measurement": "Fluorescence (% Response)", "setting": "3 uM, time 6 hours", "result": 37.0, "unit": "%"},
      {"measurement": "Fluorescence (% Response)", "setting": "30 uM, time 0 hour", "result": 52.0, "unit": "%"},
      {"measurement": "Fluorescence (% Response)", "setting": "30 uM, time 1 hour", "result": 36.2, "unit": "%"},
      {"measurement": "Fluorescence (% Response)", "setting": "30 uM, time 3 hours", "result": 29.4, "unit": "%"},
      {"measurement": "Fluorescence (% Response)", "setting": "30 uM, time 6 hours", "result": 24.9, "unit": "%"}
    ]},
    {"smiles": "CCCCCCCCCCCCOP(=O)(O)Oc1ccc(CF)cc1", "note": "[Example 8, (12:0)-p-monofluorophosphodiester]", "values": [
      {"measurement": "Fluorescence (% Response)", "setting": "[1]", "result": 99.4, "unit": "%"},
      {"measurement": "Fluorescence (% Response)", "setting": "3 uM, time 1 hour", "result": 70.0, "unit": "%"},
      {"measurement": "Fluorescence (% Response)", "setting": "3 uM, time 3 hours", "result": 52.2, "unit": "%"},
      {"measurement": "Fluorescence (% Response)", "setting": "3 uM, time 6 hours", "result": 40.6, "unit": "%"},
      {"measurement": "Fluorescence (% Response)", "setting": "30 uM, time 0 hour", "result": 89.1, "unit": "%"},
      {"measurement": "Fluorescence (% Response)", "setting": "30 uM, time 1 hour", "result": 63.0, "unit": "%"},
      {"measurement": "Fluorescence (% Response)", "setting": "30 uM, time 3 hours", "result": 48.4, "unit": "%"},
      {"measurement": "Fluorescence (% Response)", "setting": "30 uM, time 6 hours", "result": 37.7, "unit": "%"}
    ]},
    {"smiles": "CCCCCCCCCCCCCCCCOP(=O)(O)Oc1ccccc1CF", "note": "[Example 10, (16:0)-o-monofluorophosphodiester]", "values": [
      {"measurement": "Fluorescence (% Response)", "setting": "[1]", "result": 86.6, "unit": "%"},
      {"measurement": "Fluorescence (% Response)", "setting": "3 uM, time 1 hour", "result": 29.3, "unit": "%"},
      {"measurement": "Fluorescence (% Response)", "setting": "3 uM, time 3 hours", "result": 10.6, "unit": "%"},
      {"measurement": "Fluorescence (% Response)", "setting": "3 uM, time 6 hours", "result": 4.7, "unit": "%"},
      {"measurement": "Fluorescence (% Response)", "setting": "30 uM, time 0 hour", "result": 0.4, "unit": "%"},
      {"measurement": "Fluorescence (% Response)", "setting": "30 uM, time 1 hour", "result": "−16.8", "unit": "%"},
      {"measurement": "Fluorescence (% Response)", "setting": "30 uM, time 3 hours", "result": "−18.7", "unit": "%"},
      {"measurement": "Fluorescence (% Response)", "setting": "30 uM, time 6 hours", "result": "−17.0", "unit": "%"}
    ]}
  ]
}
